Source: PubChem BioAssay (NCI)
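Step 1: Grow cells in 96-well plates. Step 2: Expose to compound for 48 hours at 5 concentrations. Step 3: Interpolate endpoints linearly; if unreached, use highest concentration. GI50: concentration for 50% inhibition of growth. The concentration for full growth arrest is given as TGI.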

Key:
Assay in all cases: NCI tumour cell line growth inhibition, 48 h
786-0 renal = tested on: 786-0 renal
A498 renal = tested on: A498 renal
A549 NSCLC = tested on: A549 NSCLC
ACHN renal = tested on: ACHN renal
BT-549 breast = tested on: BT-549 breast
CAKI-1 renal = tested on: CAKI-1 renal
CCRF-CEM leukemia = tested on: CCRF-CEM leukemia
COLO 205 colon = tested on: COLO 205 colon
DU-145 prostate = tested on: DU-145 prostate
EKVX NSCLC = tested on: EKVX NSCLC
HCC-2998 colon = tested on: HCC-2998 colon
HCT-116 colon = tested on: HCT-116 colon
HCT-15 colon = tested on: HCT-15 colon
HL-60(TB) leukemia = tested on: HL-60(TB) leukemia
HOP-62 NSCLC = tested on: HOP-62 NSCLC
HOP-92 NSCLC = tested on: HOP-92 NSCLC
HS 578T breast = tested on: HS 578T breast
HT29 colon = tested on: HT29 colon
IGROV1 ovarian = tested on: IGROV1 ovarian
K-562 leukemia = tested on: K-562 leukemia
KM12 colon = tested on: KM12 colon
LOX IMVI melanoma = tested on: LOX IMVI melanoma
M14 melanoma = tested on: M14 melanoma
MALME-3M melanoma = tested on: MALME-3M melanoma
MCF7 breast = tested on: MCF7 breast
MDA-MB-231 breast = tested on: MDA-MB-231 breast
MDA-MB-435 = tested on: MDA-MB-435
MDA-MB-468 breast = tested on: MDA-MB-468 breast
MOLT-4 leukemia = tested on: MOLT-4 leukemia
NCI-H226 lung = tested on: NCI-H226 lung
NCI-H23 lung = tested on: NCI-H23 lung
NCI-H460 lung = tested on: NCI-H460 lung
NCI-H522 lung = tested on: NCI-H522 lung
NCI/ADR-RES ovarian = tested on: NCI/ADR-RES ovarian
OVCAR-3 ovarian = tested on: OVCAR-3 ovarian
OVCAR-4 ovarian = tested on: OVCAR-4 ovarian
OVCAR-5 ovarian = tested on: OVCAR-5 ovarian
OVCAR-8 ovarian = tested on: OVCAR-8 ovarian
PC-3 prostate = tested on: PC-3 prostate
RPMI-8226 leukemia = tested on: RPMI-8226 leukemia
RXF 393 renal = tested on: RXF 393 renal
SF-268 CNS = tested on: SF-268 CNS
SF-295 CNS = tested on: SF-295 CNS
SF-539 CNS = tested on: SF-539 CNS
SK-MEL-2 melanoma = tested on: SK-MEL-2 melanoma
SK-MEL-28 melanoma = tested on: SK-MEL-28 melanoma
SK-MEL-5 melanoma = tested on: SK-MEL-5 melanoma
SK-OV-3 ovarian = tested on: SK-OV-3 ovarian
SN12C renal = tested on: SN12C renal
SNB-19 CNS = tested on: SNB-19 CNS
SNB-75 CNS = tested on: SNB-75 CNS
SR leukemia = tested on: SR leukemia
SW-620 colon = tested on: SW-620 colon
T-47D breast = tested on: T-47D breast
TK-10 renal = tested on: TK-10 renal
U251 CNS = tested on: U251 CNS
UACC-257 melanoma = tested on: UACC-257 melanoma
UACC-62 melanoma = tested on: UACC-62 melanoma
UO-31 renal = tested on: UO-31 renal

O=C(Nc1cccc(C(F)(F)F)c1)c1cncc(C#Cc2cnc3ccc(N4CCOCC4)nn23)c1
GI50 (786-0 renal): 8.11 µM
TGI (786-0 renal): 42.9 µM
GI50 (A498 renal): 5.53 µM
TGI (A498 renal): 16.6 µM
GI50 (A549 NSCLC): 8.38 µM
TGI (A549 NSCLC): > 86.8 µM
GI50 (ACHN renal): 3.67 µM
TGI (ACHN renal): 42.3 µM
GI50 (BT-549 breast): 5.13 µM
TGI (BT-549 breast): 26.3 µM
GI50 (CAKI-1 renal): 4.23 µM
TGI (CAKI-1 renal): 47.4 µM
GI50 (CCRF-CEM leukemia): 5.21 µM
TGI (CCRF-CEM leukemia): 48.8 µM
GI50 (COLO 205 colon): 3.2 µM
TGI (COLO 205 colon): 11.4 µM
GI50 (DU-145 prostate): 4.3 µM
TGI (DU-145 prostate): 80 µM
GI50 (EKVX NSCLC): 4.49 µM
TGI (EKVX NSCLC): 21 µM
GI50 (HCC-2998 colon): 5.97 µM
TGI (HCC-2998 colon): 35.6 µM
GI50 (HCT-116 colon): 1.92 µM
TGI (HCT-116 colon): 13.4 µM
GI50 (HCT-15 colon): 6.58 µM
TGI (HCT-15 colon): 51.2 µM
GI50 (HL-60(TB) leukemia): 0.834 µM
TGI (HL-60(TB) leukemia): 42.3 µM
GI50 (HOP-62 NSCLC): 2.39 µM
TGI (HOP-62 NSCLC): 35.4 µM
GI50 (HOP-92 NSCLC): 1.24 µM
TGI (HOP-92 NSCLC): 3.47 µM
GI50 (HS 578T breast): 1.62 µM
TGI (HS 578T breast): 5.45 µM
GI50 (HT29 colon): 3.12 µM
TGI (HT29 colon): 20.8 µM
GI50 (IGROV1 ovarian): 2.08 µM
TGI (IGROV1 ovarian): 12.4 µM
GI50 (K-562 leukemia): 1.89 µM
TGI (K-562 leukemia): > 86.8 µM
GI50 (KM12 colon): 0.00868 µM
TGI (KM12 colon): 14.1 µM
GI50 (LOX IMVI melanoma): 2.55 µM
TGI (LOX IMVI melanoma): 11.6 µM
GI50 (M14 melanoma): 3.47 µM
TGI (M14 melanoma): 14.8 µM
GI50 (MALME-3M melanoma): 4.24 µM
TGI (MALME-3M melanoma): 18.7 µM
GI50 (MCF7 breast): 2.76 µM
TGI (MCF7 breast): 26.4 µM
GI50 (MDA-MB-231 breast): 1.13 µM
TGI (MDA-MB-231 breast): 9.33 µM
GI50 (MDA-MB-435): 4.33 µM
TGI (MDA-MB-435): 18.2 µM
GI50 (MDA-MB-468 breast): 12.8 µM
TGI (MDA-MB-468 breast): 27 µM
GI50 (MOLT-4 leukemia): 14.6 µM
TGI (MOLT-4 leukemia): > 86.8 µM
GI50 (NCI-H226 lung): 1.7 µM
TGI (NCI-H226 lung): > 86.8 µM
GI50 (NCI-H23 lung): 2.38 µM
TGI (NCI-H23 lung): 11.7 µM
GI50 (NCI-H460 lung): 11 µM
TGI (NCI-H460 lung): 27.4 µM
GI50 (NCI-H522 lung): 9.08 µM
TGI (NCI-H522 lung): 24.5 µM
GI50 (NCI/ADR-RES ovarian): 9.21 µM
TGI (NCI/ADR-RES ovarian): 44.6 µM
GI50 (OVCAR-3 ovarian): 8.91 µM
TGI (OVCAR-3 ovarian): 52.6 µM
GI50 (OVCAR-4 ovarian): 15 µM
TGI (OVCAR-4 ovarian): > 86.8 µM
GI50 (OVCAR-5 ovarian): 2.74 µM
TGI (OVCAR-5 ovarian): 38.6 µM
GI50 (OVCAR-8 ovarian): 5.9 µM
TGI (OVCAR-8 ovarian): 82.2 µM
GI50 (PC-3 prostate): 10.8 µM
TGI (PC-3 prostate): 72.6 µM
GI50 (RPMI-8226 leukemia): 12.5 µM
TGI (RPMI-8226 leukemia): 44.9 µM
GI50 (RXF 393 renal): 2.36 µM
TGI (RXF 393 renal): 6.36 µM
GI50 (SF-268 CNS): 4.58 µM
TGI (SF-268 CNS): 34.8 µM
GI50 (SF-295 CNS): 11 µM
TGI (SF-295 CNS): 29.8 µM
GI50 (SF-539 CNS): 1.11 µM
TGI (SF-539 CNS): 3.01 µM
GI50 (SK-MEL-2 melanoma): 3.87 µM
TGI (SK-MEL-2 melanoma): 13.6 µM
GI50 (SK-MEL-28 melanoma): 4.85 µM
TGI (SK-MEL-28 melanoma): 23 µM
GI50 (SK-MEL-5 melanoma): 11.2 µM
TGI (SK-MEL-5 melanoma): 22.8 µM
GI50 (SK-OV-3 ovarian): 7.01 µM
TGI (SK-OV-3 ovarian): 48.8 µM
GI50 (SN12C renal): 2.49 µM
TGI (SN12C renal): 25.3 µM
GI50 (SNB-19 CNS): 17.1 µM
TGI (SNB-19 CNS): 49.8 µM
GI50 (SNB-75 CNS): 1.76 µM
TGI (SNB-75 CNS): 7.71 µM
GI50 (SR leukemia): 2.94 µM
TGI (SR leukemia): > 86.8 µM
GI50 (SW-620 colon): 3.03 µM
TGI (SW-620 colon): > 86.8 µM
GI50 (T-47D breast): 9.23 µM
TGI (T-47D breast): 62.1 µM
GI50 (TK-10 renal): 6.98 µM
TGI (TK-10 renal): 51.9 µM
GI50 (U251 CNS): 15.4 µM
TGI (U251 CNS): 67.2 µM
GI50 (UACC-257 melanoma): 10.1 µM
TGI (UACC-257 melanoma): 56.6 µM
GI50 (UACC-62 melanoma): 2.74 µM
TGI (UACC-62 melanoma): 13.4 µM
GI50 (UO-31 renal): 3.31 µM
TGI (UO-31 renal): 19.2 µM
